Measured values published in US9557338B2 (SIGNAL PHARMACEUTICALS, LLC, priority 2012, dated 2017).
pIC50: −log10 of the molar value. Like-named read-outs stand apart in the source and are kept apart here.

How the values were obtained:
Format in all cases: cell-based
[1] = tested on: Phospho-PRAS40(T246); assay: Luminex multiplex assay, Phospho-PRAS40(T246)
Description: (§1) Determination of Phospho-GSK3β(S9), Phospho-PRAS40(T246) and Phospho-4E-BP1(T46) and the Effect of Compound 1 or Rapamycin.
(§2) The multiplex Luminex assay format differs from conventional enzyme-linked immunosorbent assay (ELISA) in that the multiplex capture antibody is attached to a polystyrene bead whereas the ELISA capture antibody is attached to the microplate well. The use of the suspension bead-based technology enables the multiplexing capabilities of the Luminex assays. The xMAP® technology uses 5.6 micron polystyrene microspheres, which are internally dyed with red and infrared fluorophores of differing intensities. Each bead is given a unique number, or bead region, allowing differentiation of one bead from another. Beads covalently bound to different specific antibodies can be mixed in the same assay, utilizing a 96-well microplate format. At the completion of the sandwich immunoassay, beads can be read, using the Luminex 100™ or Luminex 200 detection system, in single-file by dual lasers for classification and quantification of each analyte. The Akt-Pathway Phospho 5-plex kit used was custom made and includes the ability to simultaneously measure p-GSK3β (S9), p-PRAS40(T246), and p-4E-BP1(T46).
(§3) Cells were plated at the required density. The cells were treated with either Compound 1 or rapamycin over a range of concentrations for 1 hour in 5% CO2 at 37° C. Compound 1 and rapamycin were used at the same concentrations as for the proliferation assay. As for the cell proliferation assay, a reference standard was included in the assay for PC3 cells and the coefficient of variation for assay of p-GSK3β(S9) was 37.8% (n=30), p-PRAS40(T246) was 27.8% (n=30) and for p4E-BP1(T46) was 13.5% (n=4). For three cell lines (HCT-116, MDA-MB-231 and HT29) in the assay for phosphorylation of GSK3β, PRAS40 and 4E-BP1, IGF-I stimulation (500 ng/mL, recombinant human IGF-I) for the last 10 min of incubation was used. The media was aspirated from the wells and the plate was placed on ice. Then 35 μL of Lysis Buffer was added to each well and incubated on ice for at least 30 minutes. During the incubation, the standard curve for each phosphoprotein was prepared. The standards provided were reconstituted and serial dilutions were prepared according to the manufacturer's instructions. At the end of the cell lysis step, […] of the lysate was transferred to a V-bottom plate and spun at 4° C. at 2000 rpm for 5 minutes. Both the 1× Luminex bead and 1× detector antibody solutions were prepared during this time. The 1× bead solution was vortexed and 25 μL was added into each well of a black round bottom plate. Then 50 μL of the 1× detector antibody was added to each well. Fifty microliters (50 μL) of the prepared standards were added to the designated wells. Then 25 μL of the assay diluent was added to each well designated for the compound-treated cell lysates. At the end of the spin, 25 μL of cell lysate was added to the corresponding wells of the black assay plate. The assay plate was covered with the white plate lid and incubated for 3 hours at room temperature on an orbital shaker.
(§4) Approximately 10-15 minutes prior to the end of the first incubation, the secondary antibody solution was prepared according to the vendor's protocol. Goat anti-rabbit R-phycoerythrin red fluorescent protein (RPE) supplied as a 10× concentrate was diluted to generate a 1× goat anti-rabbit RPE stock. The 96-well filter plate was pre-wet with 200 μL of 1× Working wash solution. At the end of the 3 hour incubation, a multichannel pipette was used to transfer the entire contents from each assay well into the wells of the filter plate. The liquid from the wells was removed by aspiration with the vacuum manifold. Then 200 μL of 1× Working wash solution was added into each well. The wash solution was aspirated using the vacuum manifold after 15-30 seconds. This wash step was repeated one time. The bottom of the plate was blotted on clean paper towels to remove residual liquid. […]

[2] = tested on: p70S6K; assay: Luminex multiplex assay, p70S6K phosphorylation in cell lysates
Description: as §2, §3, §4

[3] = tested on: Phospho-GSK3β(S9); assay: Luminex multiplex assay, Phospho-GSK3β(S9)
Description: as §1, §2, §3, §4

[4] = PC3 cell line, read-out: Luminex PRAS40
[5] = PC3 cell line, read-out: Luminex p70S6K
[6] = PC3 cell line, read-out: Luminex GSK-3β
[7] = Homo sapiens, HCT-116, HCT116 cell line, IGF, read-out: Luminex PRAS40 (IGF)
[8] = Homo sapiens, U-87 MG, U87MG cell line, read-out: Luminex PRAS40
[9] = Homo sapiens, HCT-116, HCT116 cell line, IGF, read-out: Luminex p70S6K (IGF)
[10] = Homo sapiens, U-87 MG, U87MG cell line, read-out: Luminex p70S6K
[11] = Homo sapiens, U-87 MG, U87MG cell line, read-out: Luminex GSK-3β

| SMILES | pIC50 [1, 4] | pIC50 [2, 5] | pIC50 [3, 6] | also measured |
| --- | --- | --- | --- | --- |
| COCCN1CC(=O)Nc2ncc(-c3ccc(-c4nnc[nH]4)c(F)c3C)nc21 [C-32] | 7.23 | 7.92 | 6.77 | – |
| Cc1nc(-c2nnc[nH]2)ccc1-c1cnc2c(n1)N(C1CCC(O)CC1)C(=O)CN2 (centres unmarked) [C-72] | 6.98 | – | 6.51 | – |
| CO[C@H]1CC[C@H](CN2CC(=O)Nc3ncc(-c4ccc(C(C)(C)O)nc4)nc32)C1 [C-26] | 6.30 | 6.98 | 5.84 | – |
| COCCN1CC(=O)Nc2ncc(-c3ccc(-c4nnc[nH]4)nc3C)nc21 [A-5, 4-(2-methoxyethyl)-6-(2-methyl-6-(4H-1,2,4-triazol-3-yl)pyridin-3-yl)-3,4-dihydropyrazino[2,3-b]pyrazin-2(1H)-one] | – | – | – | pIC50 [1, 7]: 6.12; pIC50 [1, 8]: 5.96; pIC50 [2, 9]: 6.29; pIC50 [2, 10]: 6.98; pIC50 [3, 11]: 5.67 |
| CC(C)(O)c1ccc(-c2cnc3c(n2)N(CC2CCOCC2)CC(=O)N3)cc1 [A-6, 6-(4-(2-hydroxypropan-2-yl)phenyl)-4-((tetrahydro-2H-pyran-4-yl)methyl)-3,4-dihydropyrazino[2,3-b]pyrazin-2(1H)-one] | – | – | – | pIC50 [1, 7]: 6.31; pIC50 [1, 8]: 5.49; pIC50 [2, 9]: 6.18; pIC50 [2, 10]: 6.79; pIC50 [3, 11]: 5.61 |
| CCn1c(=O)[nH]c2ncc(-c3ccc(-c4nc[nH]n4)c(F)c3C)nc21 [A-7, 1-ethyl-6-(3-fluoro-2-methyl-4-(1H-1,2,4-triazol-3-yl)phenyl)-1H-imidazo[4,5-b]pyrazin-2(3H)-one] | – | – | – | pIC50 [1, 7]: 5.99; pIC50 [1, 8]: 5.55; pIC50 [2, 9]: 6.33; pIC50 [2, 10]: 6.84; pIC50 [3, 11]: < 5.30 |
| COCCN1C(=O)CNc2ncc(-c3ccc4cn[nH]c4c3)nc21 [C-107] | < 5.82 | 6.84 | < 5.82 | – |
| CO[C@H]1CC[C@@H](N2C(=O)CNc3ncc(-c4ccc(-c5nnc[nH]5)nc4C)nc32)C1 [C-57] | 6.91 | 8.22 | 6.77 | – |
| COC1CCC(N2C(=O)CNc3ncc(-c4ccc(C(C)(C)O)nc4)nc32)C1 (centres unmarked) [C-81] | 6.07 | 6.87 | < 5.82 | – |
| COC1CCC(N2C(=O)CNc3ncc(-c4ccc(C(C)(C)O)nc4)nc32)C1 (centres unmarked) [C-78] | < 5.82 | 5.89 | < 5.82 | – |
| COC1CCC(N2C(=O)CNc3ncc(-c4ccc(C(C)(C)O)cc4)nc32)CC1 (centres unmarked) [C-48] | 6.38 | 7.10 | 6.30 | – |
| Cc1nc(-c2nnc[nH]2)ccc1-c1cnc2c(n1)N(CCC1CCOCC1)C(=O)CN2 [A-4, 7-(2-methyl-6-(4H-1,2,4-triazol-3-yl)pyridin-3-yl)-1-(2-(tetrahydro-2H-pyran-4-yl)ethyl)-3,4-dihydropyrazino[2,3-b]pyrazin-2(1H)-one] | – | – | – | pIC50 [1, 7]: 6.92; pIC50 [1, 8]: 7.01; pIC50 [2, 9]: 7.02; pIC50 [2, 10]: 7.56; pIC50 ([3]; Homo sapiens, HCT-116, HCT116 cell line, IGF, read-out: Luminex GSK-3β (IGF)): 7.02; pIC50 [3, 11]: 7.15 |
| COCCN1C(=O)CNc2ncc(-c3cccc4[nH]ncc34)nc21 [C-109] | < 5.82 | 6.44 | < 5.82 | – |
| COC1CCC(CN2CC(=O)Nc3ncc(-c4ccc(C(C)(C)O)nc4)nc32)C1 (centres unmarked) [C-22] | 5.94 | 7.07 | 5.53 | – |
| CC(C)(O)c1ccc(-c2cnc3[nH]c(=O)n(CCC4CCOCC4)c3n2)cn1 [C-3] | 5.88 | 6.61 | 5.59 | – |
| COC1CCC(N2CC(=O)Nc3ncc(-c4ccc(-c5nnc[nH]5)nc4C)nc32)C1 (centres unmarked) [C-52] | 6.02 | 7.06 | 5.96 | – |
| COCCN1CC(=O)Nc2ncc(-c3ccc(-c4nnc[nH]4)nc3C)nc21 [C-10] | 6.20 | – | 5.84 | – |
| Cc1nc(-c2nnc[nH]2)ccc1-c1cnc2c(n1)N(C1CCC(O)CC1)C(=O)CN2 (centres unmarked) [C-71] | 7.43 | – | 7.40 | – |
| Cc1cc(-c2nnc[nH]2)ccc1-c1cnc2c(n1)NC(=O)CN2 [C-35] | – | 6.09 | – | – |
| CCn1c(=O)[nH]c2ncc(-c3ccc(-c4nnc[nH]4)nc3C)nc21 [A-2, 1-ethyl-6-(2-methyl-6-(4H-1,2,4-triazol-3-yl)pyridin-3-yl)-1H-imidazo[4,5-b]pyrazin-2(3H)-one] | – | – | – | pIC50 [2, 9]: 5.91; pIC50 [2, 10]: 6.36 |
| CO[C@@H]1CC[C@H](CN2CC(=O)Nc3ncc(-c4ccc(-c5nnc[nH]5)nc4C)nc32)C1 [C-36] | – | 7.80 | – | – |
| COCCN1C(=O)CNc2ncc(-c3cnc(-c4nc[nH]n4)cc3C)nc21 [C-33] | – | 9.00 | 7.09 | – |
| Cc1nc(-c2nnc[nH]2)ccc1-c1cnc2c(n1)N(CCN1CCOCC1)C(=O)CN2 [C-73] | 6.58 | – | 6.17 | – |
| CO[C@H]1CC[C@@H](CN2CC(=O)Nc3ncc(-c4ccc(-c5nnc[nH]5)nc4C)nc32)C1 [C-37] | – | 7.62 | – | – |
| CCN1CC(=O)Nc2ncc(-c3ccc(-c4nnc[nH]4)nc3C)nc21 [C-45] | 5.96 | – | 6.13 | – |

Continued, in another order:

| pIC50 [1, 4] | pIC50 [2, 5] | pIC50 [3, 6] | SMILES | also measured |
| --- | --- | --- | --- | --- |
| < 5.82 | < 5.82 | < 5.82 | N#Cc1cccc(-c2cnc3c(n2)N(CCC2CCOCC2)CC(=O)N3)c1 [C-83] | – |
| 6.84 | – | 6.66 | COC1CCC(CN2C(=O)CNc3ncc(-c4ccc(-c5nc[nH]n5)nc4C)nc32)CC1 (centres unmarked) [C-46] | – |
| < 5.82 | 5.88 | < 5.82 | NC(=O)c1cccc(-c2cnc3c(n2)N(CCC2CCOCC2)C(=O)CN3)c1 [C-90] | – |
| 5.49 | 5.30 | < 5.30 | Cc1cc(-c2cnc3c(n2)N(CC2CCOCC2)C(=O)CN3)cc2[nH]c(=O)[nH]c12 [C-38] | – |
| 5.30 | 6.13 | 5.50 | O=C1CN(CCC2CCOCC2)c2nc(-c3ccc4cc[nH]c4c3)cnc2N1 [C-41] | – |
| 7.01 | 7.77 | 6.50 | O=C1CN(CCC2CCOCC2)c2nc(-c3cnc4[nH]ccc4c3)cnc2N1 [C-44] | – |
| 6.04 | 6.89 | 6.14 | Cc1cc(C(N)=O)ncc1-c1cnc2c(n1)N(CC1CCOCC1)C(=O)CN2 [C-96] | – |
| < 5.82 | 6.33 | < 5.82 | O=C1CNc2ncc(-c3ccncc3)nc2N1CCC1CCOCC1 [C-101] | – |
| 8.30 | 9.00 | 7.68 | Cc1cc(-c2nnc[nH]2)ncc1-c1cnc2c(n1)N(CC1CCOCC1)C(C)(C)C(=O)N2 [C-30] | – |
| < 5.30 | 5.82 | < 5.30 | O=C1CN(CCC2CCOCC2)c2nc(-c3ccc4[nH]ccc4c3)cnc2N1 [C-40] | – |
| < 5.82 | 6.12 | < 5.82 | O=C1CN(CCC2CCOCC2)c2nc(-c3ccc4cn[nH]c4c3)cnc2N1 [C-68] | – |
| 5.83 | 6.30 | 5.51 | CC(C)(O)c1ccc(-c2cnc3c(n2)N(C2CCOCC2)C(=O)CN3)cn1 [C-47] | – |
| 6.17 | 6.87 | 5.95 | CC(C)(O)c1ccc(-c2cnc3c(n2)N(CCC2CCOCC2)CC(=O)N3)cn1 [C-4] | – |
| 7.26 | – | 7.24 | Cc1nc(-c2nnc[nH]2)ccc1-c1cnc2c(n1)N(C1CCOCC1)C(=O)CN2 [C-60] | – |
| 7.92 | – | 7.82 | CO[C@H]1CC[C@@H](CN2C(=O)CNc3ncc(-c4ccc(-c5nc[nH]n5)nc4C)nc32)CC1 [C-66] | – |
